Assay results published in patent US20220233556A1, “COMPOSITIONS AND METHODS FOR TREATING OPHTHALMIC CONDITIONS” (Medicon Pharmaceuticals, Inc., priority 2017, published 2022).
Like-named read-outs stand apart in the source and are kept apart here.

Columns and labels:
[1] = PS levels in ocular tissues (HPLC) after topical 3.5% PS Vitamin E TPGS solution; assay type: in vivo, New Zealand white rabbits; conditions: New Zealand white, rabbit, 3.5 % PS solution (eye drops)
Experimental: Composition: 3.5% PS; 16% Vitamin E TPGS (d-α-tocopheryl polyethylene glycol 1000 succinate); 3.18% mannitol; 1.2% boric acid; 0.005% polyquaternium-1 (Polyquad). Alternatively, vitamin E TPGS may be replaced by other solubilizing agents. Polyquad is added as a preservative.
Preparation Method: Polyquad and Vitamin E TPGS were dissolved in purified water followed by addition of PS and stirring at 70° C. for 30 min. Then the solution was centrifuged to remove non-dissolved drug particles and the supernatant was collected, to which mannitol and boric acid were added. The final volume was adjusted with purified water after adjusting the pH to 6.7±0.2 with NaOH.
Results: The above PS formulation was administered topically as eye drops to the eyes of New Zealand white rabbits. The levels of PS in ocular tissues 1 h and 3 h later were determined by HPLC.

[2] = PS biodistribution after topical Poloxamer 407-based in-situ gel; assay type: in vivo, New Zealand white rabbits; conditions: Poloxamer 407 gel, eye drops; for concentration at 3 h: New Zealand white, rabbit, topical, 5.4 % PS in formulation
Experimental: Composition: 5.4% PS; 20% Poloxamer 407; 12% Vitamin E TPGS.
Preparation Method: Poloxamer 407 solution (thermosensitive gel solution) was prepared using a “cold method.” The required amount of Poloxamer 407 and other excipients were dissolved in cold double-distilled water at 4° C. The mixture was stirred continuously until a clear solution was obtained. Then the appropriate amount of PS was dissolved in cold PM solution with continuous stirring at room temperature until a clear solution formed.
Results: PS in this formulation was administered topically as eye drops to the eyes of New Zealand white rabbits. The biodistribution of PS in ocular tissues at 3 h and 6 h was determined by HPLC.

[3] = Biodistribution of PS in human cadaveric eyes (ex vivo), PS nanoparticle solution; assay type: in vitro ADME; conditions: human eye ex vivo
Experimental: Human cadaveric eyes were obtained through the Lions Eye Bank for Long Island, Valley Stream, N.Y. They were preserved on ice and used within 2 h from removal from the donors.
The anterior surface of the human eye (corresponding to an area slightly larger than the palpebral fissure) was brought into direct contact with a PS nanoparticle (NP) solution (PS concentrations were 0.2%, 1% and 2%) and treated as above for the solution formulations of PS. […]

[4] = aqueous humor, read-out: PS in Aqueous humor
[5] = choroid, read-out: PS in Choroid
[6] = conjunctiva, read-out: PS in Conjunctiva

Work on `CCOP(=O)(OCC)OCCCCOC(=O)CC1=C(C)/C(=C/c2ccc([S+](C)[O-])cc2)c2ccc(F)cc21` (stereo not drawn) [PS, phosphosulindac] yielded a concentration at 1 h [1, 4] of 2300 nM, a concentration at 3 h [1, 4] of 100 nM and a concentration at 1 h [1, 5] of 3200 nM. It also gave a concentration at 3 h [1, 5] of 200 nM, a concentration at 1 h [1, 6] of 9300 nM and a concentration at 3 h [1, 6] of 500 nM. The concentration at 1 h ([1]; cornea, read-out: PS in Cornea) was 6900 nM, the concentration at 3 h ([1]; cornea, read-out: PS in Cornea) was 800 nM and the concentration at 3 h ([1]; iris, read-out: PS in Iris) was 900 nM. For the same molecule, the concentration at 3 h ([1]; lacrimal gland, read-out: PS in Lacrimal gland) was 500 nM, the concentration at 1 h ([1]; lens, read-out: PS in Lens) was 1800 nM and the concentration at 3 h ([1]; lens, read-out: PS in Lens) was 100 nM. The concentration at 1 h ([1]; retina, read-out: PS in Retina) was 2700 nM, the concentration at 3 h ([1]; retina, read-out: PS in Retina) was 200 nM and the concentration at 1 h ([1]; sclera, read-out: PS in Sclera) was 2300 nM. For the same molecule, the concentration at 3 h ([1]; sclera, read-out: PS in Sclera) was 200 nM, the concentration at 1 h ([1]; vitreous body, read-out: PS in Vitreous body) was 3600 nM and the “PS in Aqueous humor” value ([2]; 3 h, 5.4% PS) was 0.3 µM. For the same molecule, the “PS in Conjunctiva” value ([2]; 3 h, 5.4% PS) was 5.6 µM, the “PS in Aqueous humor” value ([2]; 6 h, 5.4% PS) was 0.3 µM and the “PS in Conjunctiva” value ([2]; 6 h, 5.4% PS) was 10.7 µM. For the same molecule, the “PS in Cornea” value ([2]; 6 h, 5.4% PS) was 13.6 µM, the concentration at 3 h ([2]; choroid, 3 h, read-out: PS in Choroid) was 0.9 µM and the concentration at 3 h ([2]; cornea, 3 h, read-out: PS in Cornea) was 45.1 µM. The “PS in Cornea” value ([3]; 0.2% PS-NPs) was 22.8 µM, the “PS in Iris” value ([3]; 0.2% PS-NPs) was 8.0 µM and the “PS in Lens” value ([3]; 0.2% PS-NPs) was 0.4 µM. For the same molecule, the “PS in Retina” value ([3]; 0.2% PS-NPs) was 2.2 µM, the “PS in Sclera” value ([3]; 0.2% PS-NPs) was 30.7 µM and the “PS in Cornea” value ([3]; 1% PS-NPs) was 58.8 µM. For the same molecule, the “PS in Iris” value ([3]; 1% PS-NPs) was 35.5 µM, the “PS in Lens” value ([3]; 1% PS-NPs) was 1.6 µM and the “PS in Retina” value ([3]; 1% PS-NPs) was 4.8 µM. The “PS in Sclera” value ([3]; 1% PS-NPs) was 152.0 µM, the “PS in Cornea” value ([3]; 2% PS-NPs) was 92.7 µM and the “PS in Iris” value ([3]; 2% PS-NPs) was 17.4 µM. The “PS in Lens” value ([3]; 2% PS-NPs) was 0.6 µM, the “PS in Retina” value ([3]; 2% PS-NPs) was 1.2 µM and the “PS in Sclera” value ([3]; 2% PS-NPs) was 113.0 µM.
